These results are taken from article PMC9362872 (Journal of Clinical Oncology, 2022).

A short description of series [1]: Projected human oral half-life. The settings on record: projection before first-in-human dosing.
Series [2] is classed as in vivo, human.
Series [3] can be described thus: 28-day GLP dog toxicology studies. Format: in vivo. To be noted: dog (most sensitive species).
Series [4] is classed as in vivo, human. The source holds these as a separate data set.
[5] abbreviates: RP2D 600 mg twice a day (20 patients), any grade.
Setting [6] is: multiple doses of 150 mg and 300 mg once daily, individual patients.

For the compound `C=C(F)C(=O)N1CCN(c2nc(OC[C@@H]3CCCN3C)nc3c2CCN(c2cccc4cccc(Cl)c24)C3)C[C@@H]1CC#N` [Adagrasib], in series [1], the “projected human oral t1/2” value is on record as “approximately 15 hours”. Besides, in series [2] (150 mg, 300 mg, 600 mg once daily, one patient each), the DLTs entry is on record as “No DLTs”. For the same compound, in series [2] (600 mg twice a day, DLT-evaluable patients), the “patients who experienced DLTs” value is “three of the 18”. Also, the “patients who experienced a DLT” value in series [2] (600 mg twice a day, first cohort of six evaluable patients) is given as “one patient”. In series [2] (RP2D 600 mg twice a day), the “TRAE fatigue, grade 3/4” value is 15.0%. In series [2] (setting [5]), the TRAE diarrhea amounted to 70.0%, the TRAE fatigue was determined as 45.0%, the TRAE nausea was 80.0% and the TRAE vomiting was 50.0%. Also, the maximum tolerated dose result in series [2] (all dose cohorts) is “No maximum tolerated dose was formally defined”. The “patients who experienced one or more DLTs” value in series [2] (all dose levels, 23 DLT-evaluable patients) is 21.7%. Further, the “recommended phase II dose (RP2D)” value in series [2] (oral, based on safety, tolerability and PK) was 600 mg twice a day. In addition, in series [3], the “highest nonseverely toxic dose (HNSTD)” value is recorded as 25 mg/kg/day. Also, in series [4] (setting [6]), the PTR entry is reported as “approximately three” and the drug accumulation result is listed as “approximately three- to four-fold”. Moreover, the accumulation of adagrasib result in series [4] (multiple doses of 600 mg twice a day, steady state) was “approximately five- to six-fold”.
